Laboratory results as given in patent US20120094985A1, “PHARMACEUTICAL COMPOSITIONS COMPRISING CHLOROPHENYL PIPERAZINE DERIVED COMPOUNDS AND USE OF THE COMPOUNDS IN PRODUCING MEDICAMENTS” (KAOHSIUNG MEDICAL UNIVERSITY, priority 2009, published 2012).

How the values were obtained:
Male ddk mice = assay: Forced swim test (FST), mean immobility time; format: in vivo, mouse; settings: for immobility period in FST: 4 mg/kg each (FIG. 2)
Description: Male ddk mice weighing between 22 and 30 g, bred in the Center Animal House facility of Kaohsiung Medical University (KMU), Taiwan, were used. These experimental animals were housed under standard laboratory conditions and maintained on natural light and dark cycle, and had free access to food and water. Animals were acclimatized to laboratory conditions before the experiment. Each animal was used only once. All the experiments were carried out between 9 a.m. and 3 p.m. The experimental protocols were approved by the Animal Center of KMU, Taiwan.
Forced swim would induce immobility of an animal to simulate the phenomenon of human depression (Renard et al., 2003) and antidepressant was used to reverse this phenomenon (Kulkarni and Mehta, 1985). This test procedure was carried out according to the previous animal model (Reddy et al., 1998).
The doses of the drugs used were selected according to the previous studies (Patil et al., 2005). Different doses were administrated intraperitoneally in a fixed volume of 1 ml/100 g body weight for 30 minutes before the animals were subjected to test.
The possible participation of the NO/cGMP pathway in the antidepressant effect of Pulmodil was investigated. Mice were pretreated with NO/cGMP pathway regulation related drugs ([…], L-arginine, methylene blue or 7-nitroindazole), and then Pulmodil or vehicle was injected to the animal. Forced swim test was performed 30 minutes later.
The possible participation of the 5-HT pathway in the antidepressant effect of Pulmodul was investigated. Mice were pretreated with 5-HT pathway related drugs (DOI, m-CPP or SB200646), and then Pulmodil or vehicle was injected to the animal. Forced swim test was performed 30 minutes later.
Results expressed as mean (sec.)±S.E.M. and the data was analyzed using One-Way or Two-Way Analysis of Variance (ANOVA) where appropriate. If any statistically significant change was found, post-hoc comparisons were performed using a Dunnett's test. Data was deemed significant when P<0.05 was considered statistically significant.

[1] = test system: cGMP concentration of mouse brain; assay: cGMP analysis of mouse brain (ELISA); format: in vivo; settings: 30 minutes post injection, basal (vehicle) 0.131±0.003
Description: Male mice were given Pulmodil with intraperitoneal (i.p.) injection, where mice were divided into three groups, and 0.5, 1 and 2 mg/kg Pulmodil respectively for each group. After 30-minute injection, mice were anesthetized with […] chloral hydrate, and then were fixed on the stereotaxic frame (Narishige, Japan) to obtain mice brain. The isolated brain was homogenized and extracted with 0.1 N HCl. The extract was centrifuged at 4° C., at 14,000 rpm for 30 minutes, and supernatant was collected to determine cGMP concentration, which was determined with commercial enzyme-linked immunosorbent assay (ELISA) kit (Assay Designs) by acetylation procedure.

[2] = test system: Male ddk mice pre-treated with Reserpine; assay: Reserpine-induced forced swimming immobility; format: in vivo, mouse; settings: for Reserpine-induced immobility: Reserpine 2 mg/kg pre-treatment, then 4 mg/kg, p<0.05 (FIG. 4)
Description: Male ddk mice weighing between 22 and 30 g, bred in the Center Animal House facility of Kaohsiung Medical University (KMU), Taiwan, were used. […] Animals were acclimatized to laboratory conditions before the experiment. Each animal was used only once. All the experiments were carried out between 9 a.m. and 3 p.m. […] This test procedure was carried out according to the previous animal model (Reddy et al., 1998). […] Mice were pretreated with NO/cGMP pathway regulation related drugs (Reserpine, L-arginine, methylene blue or 7-nitroindazole), and then Pulmodil or vehicle was injected to the animal. Forced swim test was performed 30 minutes later.

In the case of COc1cc(CC(C)N)c(OC)cc1I (stereo not drawn) [DOI, 1-(2,5-dimethoxy-4-iodophenyl)-2-aminopropane, reference compound], the immobility per se (Male ddk mice; DOI 4 mg/kg i.p. alone (FIG. 8)) is reported as “did not affect the immobility”.
With CN(C)c1ccc2nc3ccc(=[N+](C)C)cc-3sc2c1 [Methylene blue, methylene blue, reference compound] the “immobility time per se” value (Male ddk mice; methylene blue 10 mg/kg i.p. alone (FIG. 6)) was “did not affect the immobility time”.
Cl.Cn1c(=O)c2c(ncn2CCN2CCN(c3ccccc3Cl)CC2)n(C)c1=O [Pulmodil, 7-[2-[4-(2-chlorophenyl)piperazinyl]ethyl]-1,3-dimethylxanthine.acid] was tested, and the “immobility period in mouse FST” value (Male ddk mice; 4, 8 and 16 mg/kg, compared with vehicle, p<0.05 (FIG. 1)) was “produced a decrease in immobility period”, the “immobility time after 7-nitroindazole pre-treatment” value (Male ddk mice; 7-nitroindazole 25 mg/kg i.p. for 30 minutes, then Pulmodil 8 mg/kg i.p., P<0.05 (FIG. 7)) was “shortened the immobility time” and the “immobility time after DOI pre-treatment” value (Male ddk mice; DOI 4 mg/kg i.p. for 30 minutes, then Pulmodil 4 or 8 mg/kg i.p., in comparison with FIG. 1, p<0.05 (FIG. 8)) was “prolonged the immobility time”. The “immobility period after L-arginine pre-treatment” value (Male ddk mice; L-arginine 750 mg/kg i.p. for 30 minutes, then Pulmodil 16 mg/kg i.p., compared to Pulmodil without L-arginine (FIG. 5)) was “increase in immobility period”, the “immobility time after SB200646 pre-treatment” value (Male ddk mice; SB200646 4 mg/kg i.p., then Pulmodil 4 or 8 mg/kg i.p., p<0.05 (FIG. 10)) was “significantly reduced this immobility time” and the “immobility time after m-CPP pre-treatment” value (Male ddk mice; m-CPP 4 mg/kg i.p., then Pulmodil 4 or 8 mg/kg i.p., in comparison with FIG. 1, p<0.05 (FIG. 9)) was “shortened this immobility time”. The “immobility time after methylene blue pre-treatment” value (Male ddk mice; methylene blue 10 mg/kg i.p. for 30 minutes, then Pulmodil 8 mg/kg i.p., p<0.05 (FIG. 6)) was “significantly decreased the immobility time”, the “cGMP concentration in the brain” value ([1]; 0.5 mg/kg i.p.) was 0.201 ± 0.003 fmol/µg and the “cGMP concentration in the brain” value ([1]; 1 mg/kg i.p.) was 0.293 ± 0.023 fmol/µg. The “cGMP concentration in the brain” value ([1]; 2 mg/kg i.p.) was 0.288 ± 0.0234 fmol/µg.
COC(=O)[C@H]1[C@H]2C[C@@H]3c4[nH]c5cc(OC)ccc5c4CCN3C[C@H]2C[C@@H](OC(=O)c2cc(OC)c(OC)c(OC)c2)[C@@H]1OC [Reserpine] was tested, and the “immobility period in mouse FST, Reserpine alone” value ([2]; Reserpine 2 mg/kg, p<0.05 (FIG. 3)) was “increased immobility period”.
In the case of Cl.Cn1ccc2cc(NC(=O)Nc3cccnc3)ccc21 [SB200646, N-(1-methyl-1H-5-indolyl)-N′-(3-pyridinyl)urea hydrochloride, reference compound], the “immobility time per se” value (Male ddk mice; SB200646 4 mg/kg i.p. alone (FIG. 10)) is reported as “did not affect the immobility time”.
With CCCc1nn(C)c2c(=O)[nH]c(-c3cc(S(=O)(=O)N4CCN(C)CC4)ccc3OCC)nc12 [Sildenafil, reference compound] the “immobility period in FST” value (Male ddk mice) was “could not significantly affect immobility time” and the Reserpine-induced immobility [2] was “significantly inhibited”.
In the case of O=c1n(CCCN2CCN(c3cccc(Cl)c3)CC2)nc2ccccn12 [Trazodone, reference compound], the “immobility period in FST” value (Male ddk mice) is reported as “significantly decreased the immobility period” and the Reserpine-induced immobility [2] is reported as “significantly inhibited”.
With Clc1cccc(N2CCNCC2)c1 [m-CPP, meta-chlorophenylpiperazine, reference compound] the “immobility time per se” value (Male ddk mice; m-CPP 4 mg/kg i.p. alone, p<0.05 vs vehicle (FIG. 9)) was “mildly increased the immobility time”.
For Cn1c(=O)c2c(ncn2CCN2CCN(c3ccccc3Cl)CC2)n(C)c1=O [xanthine-based compound, 7-[2-[4-(2-chlorophenyl)piperazinyl]ethyl]-1,3-dimethylxanthine], the “immobility period after Reserpine pre-treatment” value ([2]; Reserpine 2 mg/kg for 4 hours, then 2, 3, 4 or 8 mg/kg, p<0.05 vs Reserpine (FIG. 3)) was “dose-dependently reduced the immobility period” and the Reserpine-induced immobility [2] was “significantly inhibited”.
